Test results from patent publication US7575857B2, “Screening method for identifying protective substances for treating neurodegenerative and/or ischemic disorders” (SYGNIS Bioscience GmbH & Co. KG, priority 2002, dated 2009).
Values joined by “and” are separate entries in the source; they are usually repeats but may differ in a detail not shown here. Identical values can stand only once.

Assays:
haemoglobin = test: Haemoglobin concentration in brain homogenate (rapid cyanhaemiglobin method) after one-off i.p. erythropoetin injection; assay type: in vivo, mice; conditions: 5000 units/kg i.p., 24 hours after injection, perfused brain, n=3
Method: In continuation of Example 3, the haemoglobin concentration was also determined in the brain of mice to whom intraperitoneal erythropoetin (Erypo made by the company Janssen) had been administered (5000 units/kg body weight). After injection of EPO, the mice were terminally anaesthetised after 24 hours by injection with Rompun/Ketanest, and the blood was rinsed out of the vascular system of the brain by transcardial perfusion with 40 ml Hanks balanced salt solution (HBSS). […] The protein content of the samples was determined according to the Bradford method (Bradford, 1976, Anal. Biochem. 72, 248-254). The haemoglobin concentration was measured with the rapid cyanhaemiglobin method (van Kampen and Zijlstra, 1961, Clin. Chim. Acta 6, 538-544). […] The extinction at 546 nm was then measured and multiplied by 36.7 to obtain the concentration in g/dl. These values were then related to the protein concentration/volume brain tissue, giving the following values (including the measured transgenic animals from Example 3): control animals: 32.54±17.51 μg/mg brain protein (n=10); EPO-transgenic animals (line tg6): 79.00±32.12 (n=13); EPO-injected animals (24 hours after injection): 77.14±13.51 μg/mg brain protein (n=3). […]

[1] = system: δ-aminolaevulinic acid synthase (ALAS) mRNA; test: Quantitative PCR for ALAS mRNA in brain of EPO-injected animals; assay type: in vivo
Text: The primer sequences used and PCR conditions were, for ALAS:
(annealing temperature: 60 C.; measurement temperature: 83 C.; 45 cycles), and for DALDH: Daldh_m—1 s: […] (SEQ ID NO:12), daldh_m—1 as: […] (SEQ ID NO: 13) (annealing temperature: 60 C.; measurement temperature: 85 C.; 45 cycles).
Through the daily administration of this dosage of EPO for 7 days, induction factors of up to 130 times were achieved: sham: 1±0.64; EPO-injected animal 1 (Epo—1)=11.67±5.46; EPO-injected animal 2 (Epo—2)=118.93±31.02; EPO-injected animal 3 (Epo—3)=44.88±15.15; EPO-injected animal 4 (Epo—4)=129.47±8.77 (FIG. 18).

neuroglobin mRNA = test: Quantitative PCR for neuroglobin mRNA after erythropoetin injection; assay type: in vivo; conditions: 5000 units/kg i.p., single injection
Text: (§1) However, it has important biochemical characteristics which fundamentally distinguish it from the globins, e.g. a far higher oxygen affinity (Dewilde et al. (2001), Journal of Biological Chemistry, 276, 38949-55). Neuroglobin is neuroprotective, although the mechanism here is not known (Sun et al. (2001), Proc. Natl. Acad. Sci. USA, 98, 15306-11, Venis (2001), Lancet, 358, 2055, Sun et al. (2003), Proc. Natl. Acad. Sci. USA, 5, 5). To determine whether neuroglobin possibly also plays a role in erythropoetin-conveyed neuroprotection, the relative content of neuroglobin mRNA after EPO administration was determined using relative quantitative PCR in comparison with cyclophilin. 5000 units of EPO/kg body weight were applied i.p. and the animals were killed after transcardial perfusion. RNA and cDNA were obtained using standard methods. From serial dilutions of the cDNA (3 times serial dilutions), the levels of cyclophilin and neuroglobin were determined and the ratio of neuroglobin/cyclophilin in the sham-treated animals set at 1. The standard deviations in the following values relate to measurements at different dilutions (n=4) and represent the measurement accuracy. The primers used were: ng1_m_LC—1s: […] (SEQ ID NO: 14), ng1_m_LC—1as: […] (SEQ ID NO: 15) for neuroglobin. […]

alpha globin = alpha globin induction in the animals of the neuroglobin experiment; assay type: in vivo; conditions: same animals as neuroglobin test, 5000 units/kg i.p.
Text: as §1

beta globin = beta globin induction in the animals of the neuroglobin experiment; assay type: in vivo; conditions: same animals as neuroglobin test, 5000 units/kg i.p.
Text: as §1

[2] = 5000 units/kg i.p. daily for 7 days

Erythropoietin [EPO]
haemoglobin concentration related to brain protein (haemoglobin): 77.14±13.51 μg/mg brain protein | ALAS induction factors [1, 2]: up to 130 times | ALAS mRNA level (sham = 1), individual animals [1, 2]: 11.67±5.46 and 118.93±31.02 and 44.88±15.15 and 129.47±8.77 | ALAS mRNA level (sham = 1), individual animals ([1]; one-off dose 5000 units/kg i.p., 24 h): 10.07±0.00 and 8.76±0.18 and 14.69±0.27 | ALAS induction ([1]; same animals as neuroglobin test, 5000 units/kg i.p.): approx. 10 times | ratio neuroglobin/cyclophilin mRNA (sham-treated set at 1), individual animals (neuroglobin mRNA): no induction and 1.01±0.15 and 0.99±0.15 and 1.04±0.13 | alpha globin induction (alpha globin): approx. 14 times | beta globin induction (beta globin): approx. 10 times
